Reference: patent publication US20260124221A1, “INJECTABLE PHARMACEUTICAL COMPOSITION FOR TREATMENT OF BREAST CANCER” (KASHIV BIOSCIENCES, LLC, priority 2021, published 2026)

How the values were obtained:
in vivo = settings: male, cynomolgus monkey, im, 28.3 mg/kg
[1] = Pharmacokinetics after single intramuscular administration in female Beagle dogs (Example 19); assay type: in vivo; settings: 17 mg/kg IM, mean ± SD; for Cmax / Tmax / AUC(0-inf) / AUC(0-t): female, beagle, dog, plasma, im, 17 mg/kg; for AUC(0-inf): read-out: AUCinf—obs of Compound I in plasma; for AUC(0-t): read-out: AUClast of Compound I in plasma
Experimental: A total of 9 female Beagle dogs were used in this study. The study was performed as a parallel design study.
(§1) All dogs were administered intramuscularly at the gluteal region.
(§2) Dose volume was equally divided and administered to two IM sites.
(§3) At each time point, −0.5 mL of blood was withdrawn and transferred into a pre-labelled K2EDTA coated vacutainer tubes and mixed gently by inverting the tube to facilitate mixing of anticoagulant with the blood. Blood samples were kept on gel packs until centrifugation. The collected blood samples were centrifuged at 5000 rpm for 5 min at 4° C. Plasma was separated after centrifugation. All plasma samples were transferred into pre-labeled (Animal ID No., Time point, Study No., and Group) tubes and stored at −70±10° C. until analysis.
Bioanalysis in plasma samples was performed using fit-for-purpose LC-MS/MS method for the quantification of—Group 1—Fulvestrant • Group 2—Fulvestrant and Compound I • Group 3—Fulvestrant and Compound I
Linearity range for Fulvestrant and Compound I analytes were 1 to 1000 ng/mL. The bioanalytical summary for Fulvestrant concentration in all three groups is shown in table 4 and graphical representation is shown in FIG. 3 Concentration of pro-drug Compound I is shown in table 5 and graphical representation is shown in FIG. 4. The plasma pharmacokinetic parameters for Fulvestrant and Compound I were calculated using standard non-compartmental analysis (Phoenix® software, version 8.3, Pharsight Corporation, Mountain View, California 94040/USA) linear trapezoidal method with linear interpolation. Ratio of fulvestrant obtained after dosing Compound I to that of Faslodex was calculated for parameters Cmax and AUC is reported in Table 6(A) and Table 6(B).

[2] = Pharmacokinetics after single intramuscular administration in female SD rats (Example 18); assay type: in vivo; settings: Sprague-Dawley, rat, plasma, im, 59 mg/kg, Compound I 100 mg/mL, mean ± SD; for AUC(0-t): read-out: AUClast of Compound I in plasma
Experimental: The objective of the study was to evaluate single site Vs. two site IM injection of compound I and it impact on pharmacokinetic exposure in female rats. Study was performed in female SD rats with n=6 animals per group. Faslodex 52 mg/kg (human equivalent dose) was administrated at two IM sites by dividing dose volume to half. In similar manner, 59 mg/kg (100 mg/mL compound I concentration) (52 mg/kg Fulvestrant equivalent) was administered as single injection (one IM site) or two IM injection by dividing dose volume in half. […] At each time point, −0.3 mL blood was collected in tubes containing Li-heparin as anti-coagulant. For plasma separation, blood was centrifuges at 5000 rpm for 10 minutes at 4° C. and collected plasma was stored at −80° C. until further analysis.
Bioanalysis in plasma samples was performed using fit-for-purpose LC-MS/MS method for the quantification Fulvestrant and Compound I. Linearity range for Fulvestrant and Compound I analytes were 2 to 2000 ng/mL. The bioanalytical summary for Fulvestrant concentration in all three groups is shown in table 1 and graphical representation is shown in FIG. 1 Concentration of Compound I is shown in table 2 and graphical representation is shown in FIG. 2. The plasma pharmacokinetic parameters for Fulvestrant and Compound I were calculated using standard non-compartmental analysis (Phoenix® software, version 8.1, Pharsight Corporation, Mountain View, California 94040/USA) linear trapezoidal method with linear interpolation.

[3] = Stability of Compound I in solubilised composition; assay type: physicochemical
Text: Example 15: Stability of Compound I in Solubilised Composition
Example 16: Stability of Compound I in Solubilised Composition
Example 17: Stability of Compound I in Solubilised Composition

[4] = Pharmacokinetic study in female Beagle dog, 169.5 mg/mL composition (Example 24); assay type: in vivo; settings: female Beagle dogs, Compound I 169.5 mg/mL, 17 mg/kg IM, two sites
Experimental: A total of 2 female beagle dogs were used in this study.
as §1, §2
as §3, with “pre-labeled” for “pre-labelled”
Bioanalysis of plasma samples was performed using fit-for-purpose LC-MS/MS method for the quantification of fulvestrant and Compound I.
Linearity range for Fulvestrant and Compound I analytes were 1 to 1000 ng/mL. The plasmapharmacokinetic parameters for Fulvestrant and Compound I were calculated using standard non-compartmental analysis (Phoenix® software, version 8.3, Pharsight Corporation, Mountain View, California 94040/USA) linear trapezoidal method with linear interpolation.

[5] = Pharmacokinetic study in male cynomolgus monkey (Example 25); settings: male cynomolgus monkeys; Compound I 28.3 mg/kg IM, 169.5 mg/mL, one site
[6] = composition with 113 mg/ml compound I, Initial
[7] = composition with 113 mg/ml compound I, Room Temp (45 Days)
[8] = composition with 169.5 mg/ml compound I, Initial
[9] = composition with 169.5 mg/ml compound I, Room Temp (30 Days)
[10] = composition with 226 mg/ml compound I, Initial
[11] = composition with 226 mg/ml compound I, Room Temp (30 Days)

In the case of C[C@]12CC[C@@H]3c4ccc(OP(=O)(O)O)cc4C[C@@H](CCC[S+]([O-])CCCC(F)(F)C(F)(F)F)[C@H]3[C@@H]1CC[C@@H]2O (stereo partly shown) [Compound I], the AUC(0-t) (in vivo) is reported as 17500 ng·h/mL, the “AUC% exp. pol of Compound I” value ([1]; Compound I 50 mg/mL) is reported as 0.967 ± 0.255% and the “AUC% exp. pol of Compound I” value ([1]; Compound I 100 mg/mL) is reported as 0.974 ± 0.886%. The Cmax ([1]; Compound I 50 mg/mL) was 624 ± 274 ng/mL, the Tmax ([1]; Compound I 50 mg/mL) was 0.83 ± 1.01 h and the AUC(0-inf) ([1]; Compound I 50 mg/mL) was 4260 ± 1060 ng·h/mL. The AUC(0-t) ([1]; Compound I 50 mg/mL) was 4220 ± 1060 ng·h/mL, the Cmax ([1]; Compound I 100 mg/mL) was 272 ± 183 ng/mL and the Tmax ([1]; Compound I 100 mg/mL) was 1.83 ± 1.89 h. It also gave an AUC(0-inf) ([1]; Compound I 100 mg/mL) of 4360 ± 1390 ng·h/mL, an AUC(0-t) ([1]; Compound I 100 mg/mL) of 4320 ± 1410 ng·h/mL and a Cmax ([2]; IM single site) of 969 ± 349 ng/mL. The Tmax ([2]; IM single site) was 3.17 ± 2.56 h, the AUC(0-t) ([2]; IM single site) was 12400 ± 3430 ng·h/mL and the Cmax ([2]; IM two sites) was 1150 ± 500 ng/mL. The Tmax ([2]; IM two sites) was 1.83 ± 0.41 h, the AUC(0-t) ([2]; IM two sites) was 12800 ± 3120 ng·h/mL and the Description ([3]; composition with 113 mg/ml compound I (equivalent to 100 mg/ml Fulvestrant), Initial) was “Clear colorless to light”. The “Assay of compound I(%)” value [3, 6] was 104.0%, the “Visual Inspection” value [3, 6] was “Clear solution, No” and the “Assay of compound I(%)” value [3, 7] was 103.3%. For the same compound, the Description [3, 7] was “Clear colorless to light”, the “Visual Inspection” value [3, 7] was “Clear solution, No” and the Description ([3]; composition with 169.5 mg/ml compound I (equivalent to 150 mg/ml Fulvestrant), Initial) was “Clear colorless to light”. For the same compound, the “Assay of compound I(%)” value [3, 8] was 100.4%, the “Visual Inspection” value [3, 8] was “Clear solution, No” and the “Assay of compound I(%)” value [3, 9] was 95.30%. For the same compound, the Description [3, 9] was “Clear colorless to light”, the “Visual Inspection” value [3, 9] was “Clear solution, No” and the “Assay of compound I(%)” value [3, 10] was 101.8%. The “Visual Inspection” value [3, 10] was “Clear solution, No”, the “Assay of compound I(%)” value [3, 11] was 98% and the Description [3, 11] was “Clear colorless to light”. The “Visual Inspection” value [3, 11] was “Clear solution, No”, the Tmax ([4]; dog, plasma) was 8 h and the Cmax ([4]; dog, plasma, mean ± SD) was 322 ± 14.1 ng/mL. For the same compound, the AUC(0-inf) ([4]; dog, plasma, mean ± SD, read-out: AUCinf—obs of Compound I in plasma) was 5540 ± 1880 ng·h/mL, the AUC(0-t) ([4]; dog, plasma, mean ± SD, read-out: AUClast of Compound I in plasma) was 5510 ± 1880 ng·h/mL and the “AUC% exp. pol of Compound I” value ([4]; mean ± SD) was 0.578 ± 0.303%. The “C_max (Compound I in plasma)” value [5] was 1081 ng/mL, the “T_max (Compound I in plasma)” value [5] was 3.42 h and the “T_½ (Compound I in plasma)” value [5] was 12.79 h. The “Tlast (Compound I in plasma)” value [5] was 152.00 h.
